Experimental data as given in ChEMBL document CHEMBL1201862, “PubChem BioAssay data set” (2004).
Calls of active or inactive are those of the source.

Tests used:
[1] = target: T1, Corticotropin-releasing factor receptor 2/Corticotropin-releasing factor-binding protein (Homo sapiens, UniProt P24387+Q13324); assay: activators of CRF receptor 2 with binding protein – uHTS hits, confirmation (AID 602473); assay type: functional; conditions: read-out: EC50_Mean
T1 sequence (Q13324 whole entry): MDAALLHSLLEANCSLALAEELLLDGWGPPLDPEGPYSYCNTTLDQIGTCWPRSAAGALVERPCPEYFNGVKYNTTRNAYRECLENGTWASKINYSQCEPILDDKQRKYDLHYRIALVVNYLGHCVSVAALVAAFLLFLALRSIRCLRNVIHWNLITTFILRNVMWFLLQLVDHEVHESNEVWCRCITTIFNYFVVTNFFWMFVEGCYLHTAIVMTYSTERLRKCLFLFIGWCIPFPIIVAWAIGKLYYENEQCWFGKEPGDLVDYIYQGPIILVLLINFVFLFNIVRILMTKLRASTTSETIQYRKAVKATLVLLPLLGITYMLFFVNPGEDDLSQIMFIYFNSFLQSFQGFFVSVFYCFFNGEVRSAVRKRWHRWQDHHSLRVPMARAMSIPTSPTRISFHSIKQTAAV
T1 sequence (P24387 whole entry): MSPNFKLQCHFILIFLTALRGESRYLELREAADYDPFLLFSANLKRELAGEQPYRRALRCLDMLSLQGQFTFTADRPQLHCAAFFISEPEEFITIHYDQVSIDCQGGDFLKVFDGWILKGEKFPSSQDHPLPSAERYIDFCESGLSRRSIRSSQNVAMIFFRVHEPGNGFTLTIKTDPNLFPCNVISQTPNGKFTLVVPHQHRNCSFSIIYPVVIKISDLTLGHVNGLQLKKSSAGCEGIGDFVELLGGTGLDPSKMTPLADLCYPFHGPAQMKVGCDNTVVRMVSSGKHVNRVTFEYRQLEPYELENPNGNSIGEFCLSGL

Caspase-6 = target: T2, Caspase-6 (Homo sapiens, UniProt P55212); assay: human caspase-6 inhibitors, dose response, biochemical, VEID-R110 fluorescence, cherry-pick (AID 720632)
T2 sequence (P55212 whole entry): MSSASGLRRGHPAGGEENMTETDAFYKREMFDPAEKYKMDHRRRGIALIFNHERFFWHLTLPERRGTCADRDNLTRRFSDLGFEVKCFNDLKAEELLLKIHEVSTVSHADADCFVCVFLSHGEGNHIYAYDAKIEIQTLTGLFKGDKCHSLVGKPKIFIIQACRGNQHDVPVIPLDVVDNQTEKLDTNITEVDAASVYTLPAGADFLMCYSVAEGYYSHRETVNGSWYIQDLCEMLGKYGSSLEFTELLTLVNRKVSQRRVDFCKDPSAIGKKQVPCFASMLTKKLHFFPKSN

Protein RecA = target: T3, Protein RecA (Mycobacterium tuberculosis, UniProt P9WHJ3); assay: Fluorescence Cell-Free Homogeneous Dose Retest to Identify Inhibitors of RecA-Intein Splicing Activity. [Related pubchem assays (depositor defined):AID2097, AID2223, AID489010, AID492950]; assay type: functional
T3 sequence (P9WHJ3 whole entry): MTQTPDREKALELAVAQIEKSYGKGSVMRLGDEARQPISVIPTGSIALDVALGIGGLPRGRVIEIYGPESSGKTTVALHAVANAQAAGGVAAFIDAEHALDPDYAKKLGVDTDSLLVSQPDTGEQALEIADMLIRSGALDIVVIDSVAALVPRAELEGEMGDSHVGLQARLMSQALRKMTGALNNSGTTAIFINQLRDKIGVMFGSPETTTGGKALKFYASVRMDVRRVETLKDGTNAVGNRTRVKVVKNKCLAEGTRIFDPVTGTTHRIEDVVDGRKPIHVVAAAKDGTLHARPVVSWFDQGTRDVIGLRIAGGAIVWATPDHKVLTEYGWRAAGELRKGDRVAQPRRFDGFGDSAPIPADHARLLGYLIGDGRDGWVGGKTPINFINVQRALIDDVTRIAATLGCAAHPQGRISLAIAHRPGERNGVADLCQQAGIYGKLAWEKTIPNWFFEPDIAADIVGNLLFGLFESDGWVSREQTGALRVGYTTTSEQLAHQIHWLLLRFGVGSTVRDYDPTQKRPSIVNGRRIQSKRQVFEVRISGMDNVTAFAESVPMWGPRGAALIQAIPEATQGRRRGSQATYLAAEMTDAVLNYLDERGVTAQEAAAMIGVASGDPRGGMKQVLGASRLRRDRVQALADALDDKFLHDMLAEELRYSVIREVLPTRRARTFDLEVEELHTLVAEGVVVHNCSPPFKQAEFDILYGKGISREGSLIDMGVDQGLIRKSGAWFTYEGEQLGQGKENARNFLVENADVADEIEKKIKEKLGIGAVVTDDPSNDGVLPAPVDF

[2] = target: T4, Replicative DNA helicase DnaB (Mycobacterium tuberculosis, UniProt P9WMR3); assay: DnaB intein splicing inhibitors, dose response, biochemical, cell-free fluorescence (AID 449749); assay type: functional
T4 sequence (P9WMR3 whole entry): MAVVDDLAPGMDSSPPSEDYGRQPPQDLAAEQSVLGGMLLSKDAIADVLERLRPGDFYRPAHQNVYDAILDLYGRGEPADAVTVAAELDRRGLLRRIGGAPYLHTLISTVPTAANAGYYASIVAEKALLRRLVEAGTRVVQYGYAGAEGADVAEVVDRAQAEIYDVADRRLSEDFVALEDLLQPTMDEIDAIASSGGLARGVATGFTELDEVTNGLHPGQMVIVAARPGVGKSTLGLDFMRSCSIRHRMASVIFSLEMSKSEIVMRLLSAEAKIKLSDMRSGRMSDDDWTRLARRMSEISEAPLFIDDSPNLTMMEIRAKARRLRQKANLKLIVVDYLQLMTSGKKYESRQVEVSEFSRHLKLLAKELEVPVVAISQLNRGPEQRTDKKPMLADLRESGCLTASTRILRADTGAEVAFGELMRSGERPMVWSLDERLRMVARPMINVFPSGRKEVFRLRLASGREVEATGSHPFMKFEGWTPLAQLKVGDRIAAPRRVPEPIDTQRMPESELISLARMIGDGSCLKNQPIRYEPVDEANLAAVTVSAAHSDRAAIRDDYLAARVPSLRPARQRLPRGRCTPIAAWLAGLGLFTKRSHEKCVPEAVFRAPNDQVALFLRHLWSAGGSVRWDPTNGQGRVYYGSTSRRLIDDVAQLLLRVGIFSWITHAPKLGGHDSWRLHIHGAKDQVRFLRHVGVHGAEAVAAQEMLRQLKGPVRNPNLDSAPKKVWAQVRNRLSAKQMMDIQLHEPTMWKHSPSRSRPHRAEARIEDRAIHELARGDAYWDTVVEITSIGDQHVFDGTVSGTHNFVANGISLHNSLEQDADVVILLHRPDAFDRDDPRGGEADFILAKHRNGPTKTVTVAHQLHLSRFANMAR

[3] = cytotoxicity in HPDE-C7 cells, cell-based, fluorescence, HTS (AID 430); assay type: functional; conditions: Homo sapiens
Cytochrome P450 2C19 = Cytochrome P450 2C19 (Homo sapiens, UniProt P33261); assay: Cytochrome panel assay with activity outcomes. Panel member name: p450-cyp2c19 Compounds with AC50 equal or less than 10 uM are considered active; assay type: functional; conditions: read-out: AC50
[4] = cytotoxicity in KRAS-transformed pancreatic duct cells, primary screen, cell-based, fluorescence, HTS (AID 431); assay type: functional; conditions: Homo sapiens;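 further: cell line used: HPDE-C7K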
[5] = target: T5, Tyrosine-protein phosphatase non-receptor type 7 (Homo sapiens, UniProt P35236); assay: inhibitors of human HePTP phosphatase, […], biochemical, absorbance, leukemia target (AID 521); assay type: functional
T5 sequence (P35236 whole entry): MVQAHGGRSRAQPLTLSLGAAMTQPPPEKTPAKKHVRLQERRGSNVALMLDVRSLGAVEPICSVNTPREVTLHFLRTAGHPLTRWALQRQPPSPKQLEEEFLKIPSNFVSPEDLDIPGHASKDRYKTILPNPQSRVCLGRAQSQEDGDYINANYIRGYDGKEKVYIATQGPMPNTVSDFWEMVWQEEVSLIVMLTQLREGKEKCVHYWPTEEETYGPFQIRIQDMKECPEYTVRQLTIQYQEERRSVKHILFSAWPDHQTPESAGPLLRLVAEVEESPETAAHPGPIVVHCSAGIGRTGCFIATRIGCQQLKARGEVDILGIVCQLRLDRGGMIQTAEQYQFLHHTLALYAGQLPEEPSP

[6] = M. tuberculosis H37Rv growth inhibitors, H37Rv strain (AID 1626); assay type: functional
[7] = target: T6, Carboxy-terminal domain RNA polymerase II polypeptide A small phosphatase 1 (Homo sapiens, UniProt Q9GZU7); assay: inhibitors of CTDSP1, concentration-response testing, biochemical assay, absorbance-based, actives from ultra-high-throughput screening (AID 540297); assay type: functional
T6 sequence (Q9GZU7 whole entry): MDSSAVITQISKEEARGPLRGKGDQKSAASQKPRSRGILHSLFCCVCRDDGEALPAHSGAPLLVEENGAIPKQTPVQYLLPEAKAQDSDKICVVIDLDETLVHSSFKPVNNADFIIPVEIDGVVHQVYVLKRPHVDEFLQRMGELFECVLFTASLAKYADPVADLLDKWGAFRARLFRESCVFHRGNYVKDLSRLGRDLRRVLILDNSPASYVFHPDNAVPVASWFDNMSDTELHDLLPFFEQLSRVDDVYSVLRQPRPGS

[8] = enhancers of respiration in Yfh1-depleted yeast, dose response, Friedreich's ataxia, plus single-dose screen (AID 1465); assay type: functional;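 further: yeast depleted of Yfh1p frataxin homolog grown on glycerol needing respiration; WST-1 tetrazolium dye reduction as measure of cellular dehydrogenase metabolic activity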
[9] = P. falciparum Dd2 growth inhibitors, dose response, SYBR Green, cherry-picked samples (AID 1159567); assay type: functional, cell-based
Paired box protein Pax-8 = Paired box protein Pax-8 (Homo sapiens, UniProt Q06710); assay: inhibitors of PAX8-driven TPO luciferase reporter, dose response, RMG-I cells, cherry-pick (AID 687027); assay type: functional, cell-based;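 further: luciferase reporter driven by Pax8 target thyroperoxidase promoter measured by SteadyGlo luminescence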
[10] = NIH:OVCAR-3 ovarian cancer cell cytotoxicity, dose response, PAX8 inhibitor project, plate reader, dry powder samples (AID 743044); assay type: functional, cell-based
[11] = HepG2 cell cytotoxicity, dose response, cytotoxicity control, cherry-picked samples (AID 1159577); assay type: functional, cell-based

Chain of Cytochrome P450 2C19 (P33261 whole entry): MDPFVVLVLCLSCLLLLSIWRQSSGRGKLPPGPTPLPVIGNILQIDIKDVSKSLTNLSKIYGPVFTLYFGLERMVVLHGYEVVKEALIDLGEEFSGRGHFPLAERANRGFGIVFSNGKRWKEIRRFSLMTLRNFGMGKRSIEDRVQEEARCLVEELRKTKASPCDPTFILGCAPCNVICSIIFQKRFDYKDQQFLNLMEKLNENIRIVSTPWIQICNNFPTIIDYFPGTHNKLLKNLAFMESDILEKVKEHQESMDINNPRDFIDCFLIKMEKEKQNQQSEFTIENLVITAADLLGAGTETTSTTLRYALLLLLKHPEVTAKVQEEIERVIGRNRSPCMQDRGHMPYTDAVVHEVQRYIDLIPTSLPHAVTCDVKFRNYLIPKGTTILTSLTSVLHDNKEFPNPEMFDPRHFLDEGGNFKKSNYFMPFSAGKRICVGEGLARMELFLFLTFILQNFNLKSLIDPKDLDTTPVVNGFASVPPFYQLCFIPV
Chain of Paired box protein Pax-8 (Q06710 whole entry): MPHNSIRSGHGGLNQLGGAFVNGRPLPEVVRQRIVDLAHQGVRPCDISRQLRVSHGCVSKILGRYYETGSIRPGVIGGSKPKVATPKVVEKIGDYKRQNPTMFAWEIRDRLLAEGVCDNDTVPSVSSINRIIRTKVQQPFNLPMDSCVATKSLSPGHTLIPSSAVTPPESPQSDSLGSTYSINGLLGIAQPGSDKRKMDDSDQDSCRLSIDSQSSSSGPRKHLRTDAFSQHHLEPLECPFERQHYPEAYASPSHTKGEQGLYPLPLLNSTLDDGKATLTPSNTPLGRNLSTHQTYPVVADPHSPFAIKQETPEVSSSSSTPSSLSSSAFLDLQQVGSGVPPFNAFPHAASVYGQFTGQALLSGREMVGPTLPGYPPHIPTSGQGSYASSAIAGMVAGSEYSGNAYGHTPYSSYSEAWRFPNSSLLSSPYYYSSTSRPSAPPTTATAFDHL

For `O=C([C-](C1=[N+](Cc2ccc(Cl)nc2)CCN1Cc1ccc(Cl)nc1)[N+](=O)[O-])C(Cl)Cl`, the EC50 [1] was > 53 µM (inactive), the AC50 (Caspase-6) was 8.77 µM (active) and the EC50 (Protein RecA) was 3.48 µM (active). The AC50 [2] was 2.03 µM (active).
In the case of `CC(=O)NC1(c2cccc(F)c2)CCN(CC(=O)NC2CCCCC2)CC1`, the EC50 [3] is reported as > 20 µM (not active), the AC50 (Cytochrome P450 2C19) is reported as 3.55 µM (inconclusive) and the EC50 [4] is reported as > 20 µM (not active).
With `O=C(OCN1C(=O)c2ccccc2C1=O)c1cccs1` the IC50 [5] was > 100 µM (not active).
With `O=C(COC(=O)C1COc2ccccc2O1)NC(=O)Nc1ccc2c(c1)OCCO2` (stereo not drawn) the IC50 [6] was > 100 µM (active).
With `NS(=O)(=O)c1cccc(NC(=O)c2ccc3[nH]cnc3c2)c1` the AC50 (Caspase-6) was 17.3 µM (active) and the IC50 [7] was 7.41 µM (active).
For `CN(C)c1ccc(/C=C(/C(=O)c2ccc(Cl)cc2Cl)n2cncn2)cc1`, the EC50 [8] was > 100 µM (active).
For `COc1cc(NC(=O)C2CCCCN2)ccc1OCC(C)C` (stereo not drawn), the EC50 [3] was > 20 µM (not active) and the EC50 [4] was > 20 µM (not active).
In the case of `O=C(NC1=NCCS1)c1ccc2c(c1)C(=O)N(Cc1ccco1)C2=O`, the IC50 [5] is reported as > 100 µM (not active).
For `O=C(NC1CCCCCC1)c1c(F)c(F)c(F)c(F)c1F`, the IC50 [5] was > 100 µM (not active).
In the case of `Nc1ccc(C(=O)Nc2ccc3c(O)cc(S(=O)(=O)O)cc3c2)cc1`, the AC50 (Caspase-6) is reported as 8.79 µM (active) and the IC50 [7] is reported as 4.61 µM (active).
In the case of `O=C(Nc1ccccc1)N1C[C@@H]2N[C@H](C1)[C@@H]2c1ccc(/C=C/c2ccccc2)cc1`, the AC50 [9] is reported as 1.85 µM (active), the AC50 (Paired box protein Pax-8) is reported as 22.6 µM (active) and the AC50 [10] is reported as 33.5 µM (active). The AC50 [11] was 7.17 µM (active).
For `O=[N+]([O-])c1ccc(-c2ccc(/C=N/O)o2)cc1`, the IC50 [6] was > 100 µM (active).
